Laboratory results: patent publication EP4745135A1 (Gluetacs Therapeutics (Shanghai) Co., Ltd., priority 2023, dated 2025)

What was measured:
CK1α = target: T1, CK1α (Homo sapiens, UniProt P48729+Q96SW2); test: Western blot, degradation of substrate protein in hPBMCs; type: cell-based; settings: Western blot, 24 hours of compound treatment, compounds tested at 50 nM and 500 nM (concentration for the table not stated)
T1 construct: effects of the compounds of the present disclosure on the expression of target proteins in cells; endogenous in cells; host or cells: human PBMCs (Milecell Biotechnologies)
T1 sequence (P48729 whole entry): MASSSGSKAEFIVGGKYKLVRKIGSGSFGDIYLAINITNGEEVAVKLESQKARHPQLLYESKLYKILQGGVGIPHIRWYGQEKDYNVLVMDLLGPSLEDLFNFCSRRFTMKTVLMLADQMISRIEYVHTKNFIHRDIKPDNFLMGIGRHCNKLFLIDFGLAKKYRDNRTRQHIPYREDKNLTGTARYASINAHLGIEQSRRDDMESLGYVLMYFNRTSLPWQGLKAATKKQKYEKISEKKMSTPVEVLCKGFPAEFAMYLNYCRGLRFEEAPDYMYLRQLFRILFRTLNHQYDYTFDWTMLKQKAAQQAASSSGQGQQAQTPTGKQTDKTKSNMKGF
T1 sequence (Q96SW2 whole entry): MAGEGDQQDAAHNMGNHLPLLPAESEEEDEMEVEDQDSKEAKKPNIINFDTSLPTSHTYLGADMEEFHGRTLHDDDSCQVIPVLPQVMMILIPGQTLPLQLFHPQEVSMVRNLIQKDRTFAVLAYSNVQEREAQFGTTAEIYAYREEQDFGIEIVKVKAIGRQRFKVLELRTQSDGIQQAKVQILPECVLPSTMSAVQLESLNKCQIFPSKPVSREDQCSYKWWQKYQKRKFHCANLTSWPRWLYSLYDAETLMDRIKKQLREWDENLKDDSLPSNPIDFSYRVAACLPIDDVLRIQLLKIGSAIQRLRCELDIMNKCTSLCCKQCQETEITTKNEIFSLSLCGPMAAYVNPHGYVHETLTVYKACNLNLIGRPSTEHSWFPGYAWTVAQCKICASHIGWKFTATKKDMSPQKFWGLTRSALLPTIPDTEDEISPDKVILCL
T1 sequence (Q16531 whole entry partner): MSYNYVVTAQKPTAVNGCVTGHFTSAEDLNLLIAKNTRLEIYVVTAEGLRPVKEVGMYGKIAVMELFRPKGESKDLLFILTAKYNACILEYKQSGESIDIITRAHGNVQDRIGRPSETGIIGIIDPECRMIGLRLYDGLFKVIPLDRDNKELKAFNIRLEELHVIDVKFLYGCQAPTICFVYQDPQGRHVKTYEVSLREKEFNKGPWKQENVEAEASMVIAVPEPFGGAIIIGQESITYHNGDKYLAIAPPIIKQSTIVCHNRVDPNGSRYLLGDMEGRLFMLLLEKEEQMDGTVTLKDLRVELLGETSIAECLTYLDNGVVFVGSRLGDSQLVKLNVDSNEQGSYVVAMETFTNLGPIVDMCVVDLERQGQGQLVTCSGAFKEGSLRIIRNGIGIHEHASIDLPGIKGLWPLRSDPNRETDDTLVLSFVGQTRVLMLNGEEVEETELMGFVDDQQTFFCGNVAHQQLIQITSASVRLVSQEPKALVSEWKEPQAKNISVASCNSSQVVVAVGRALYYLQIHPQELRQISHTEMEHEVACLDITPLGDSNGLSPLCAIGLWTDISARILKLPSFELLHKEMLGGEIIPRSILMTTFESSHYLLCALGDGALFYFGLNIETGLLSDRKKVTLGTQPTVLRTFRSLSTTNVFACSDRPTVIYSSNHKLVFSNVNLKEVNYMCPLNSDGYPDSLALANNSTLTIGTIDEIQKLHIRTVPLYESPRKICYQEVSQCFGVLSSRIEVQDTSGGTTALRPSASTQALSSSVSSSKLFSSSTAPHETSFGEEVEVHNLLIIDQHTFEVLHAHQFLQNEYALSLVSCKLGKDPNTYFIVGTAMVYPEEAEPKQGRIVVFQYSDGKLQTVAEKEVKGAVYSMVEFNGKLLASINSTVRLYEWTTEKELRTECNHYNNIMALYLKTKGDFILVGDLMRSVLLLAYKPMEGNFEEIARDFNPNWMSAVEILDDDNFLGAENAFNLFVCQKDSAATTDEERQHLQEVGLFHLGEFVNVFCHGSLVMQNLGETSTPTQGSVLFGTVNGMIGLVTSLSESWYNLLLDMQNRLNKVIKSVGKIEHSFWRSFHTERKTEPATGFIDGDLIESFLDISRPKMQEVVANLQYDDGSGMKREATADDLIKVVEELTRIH

IKZF3 = target: T2, IKZF3 (Homo sapiens, UniProt Q96SW2+Q9UKT9); test: as above; type: cell-based; settings: Western blot, 24 hours of compound treatment, compounds tested at 50 nM and 500 nM (concentration for the table not stated)
T2 construct: effects of the compounds of the present disclosure on the expression of target proteins in cells; endogenous in cells; host or cells: human PBMCs (Milecell Biotechnologies)
T2 sequence (Q9UKT9 whole entry): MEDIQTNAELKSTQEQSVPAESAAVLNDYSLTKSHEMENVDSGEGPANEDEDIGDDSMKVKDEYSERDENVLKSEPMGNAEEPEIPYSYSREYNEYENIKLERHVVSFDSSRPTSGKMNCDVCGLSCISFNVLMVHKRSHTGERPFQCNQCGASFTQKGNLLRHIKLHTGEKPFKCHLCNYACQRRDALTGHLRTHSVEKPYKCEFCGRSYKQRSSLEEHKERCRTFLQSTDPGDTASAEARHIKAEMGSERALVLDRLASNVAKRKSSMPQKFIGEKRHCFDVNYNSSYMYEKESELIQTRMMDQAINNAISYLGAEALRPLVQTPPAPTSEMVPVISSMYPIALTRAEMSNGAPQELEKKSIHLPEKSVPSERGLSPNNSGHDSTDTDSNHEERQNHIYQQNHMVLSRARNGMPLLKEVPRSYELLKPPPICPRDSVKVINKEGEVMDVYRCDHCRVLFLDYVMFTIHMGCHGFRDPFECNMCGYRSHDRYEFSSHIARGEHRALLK
T2 sequence (Q96SW2 whole entry): as the sequence (Q96SW2 whole entry) above
T2 sequence (Q16531 whole entry partner): as the sequence (Q16531 whole entry partner) above

WEE1 = target: T3, WEE1 (Homo sapiens, UniProt P30291+Q96SW2); test: as above; type: cell-based; settings: Western blot, 24 hours of compound treatment, compounds tested at 50 nM and 500 nM (concentration for the table not stated)
T3 construct: effects of the compounds of the present disclosure on the expression of target proteins in cells; endogenous in cells; host or cells: human PBMCs (Milecell Biotechnologies)
T3 sequence (P30291 whole entry): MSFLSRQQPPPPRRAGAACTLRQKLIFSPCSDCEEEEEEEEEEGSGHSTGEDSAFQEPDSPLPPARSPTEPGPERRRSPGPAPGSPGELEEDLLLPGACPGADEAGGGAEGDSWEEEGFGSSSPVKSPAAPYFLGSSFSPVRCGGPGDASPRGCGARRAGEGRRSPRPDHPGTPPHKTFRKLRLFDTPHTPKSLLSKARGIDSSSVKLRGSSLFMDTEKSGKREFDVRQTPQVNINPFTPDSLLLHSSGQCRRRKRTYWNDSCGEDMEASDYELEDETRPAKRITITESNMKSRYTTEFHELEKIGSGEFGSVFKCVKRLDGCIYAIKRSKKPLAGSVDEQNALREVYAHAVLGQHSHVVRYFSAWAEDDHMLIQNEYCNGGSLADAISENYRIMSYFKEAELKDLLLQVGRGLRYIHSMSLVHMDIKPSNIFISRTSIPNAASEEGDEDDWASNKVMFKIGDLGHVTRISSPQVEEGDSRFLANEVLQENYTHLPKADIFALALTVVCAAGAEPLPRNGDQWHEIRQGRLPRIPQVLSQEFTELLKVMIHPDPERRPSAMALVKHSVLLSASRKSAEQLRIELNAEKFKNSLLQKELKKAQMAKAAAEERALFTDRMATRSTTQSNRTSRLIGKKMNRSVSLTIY
T3 sequence (Q96SW2 whole entry): as the sequence (Q96SW2 whole entry) above
T3 sequence (Q16531 whole entry partner): as the sequence (Q16531 whole entry partner) above

IKZF2 = target: T4, IKZF2 (Homo sapiens, UniProt Q96SW2+Q9UKS7); test: as above; type: cell-based; settings: Western blot, 24 hours of compound treatment, compounds tested at 50 nM and 500 nM (concentration for the table not stated)
T4 construct: effects of the compounds of the present disclosure on the expression of target proteins in cells; endogenous in cells; host or cells: human PBMCs (Milecell Biotechnologies)
T4 sequence (Q9UKS7 whole entry): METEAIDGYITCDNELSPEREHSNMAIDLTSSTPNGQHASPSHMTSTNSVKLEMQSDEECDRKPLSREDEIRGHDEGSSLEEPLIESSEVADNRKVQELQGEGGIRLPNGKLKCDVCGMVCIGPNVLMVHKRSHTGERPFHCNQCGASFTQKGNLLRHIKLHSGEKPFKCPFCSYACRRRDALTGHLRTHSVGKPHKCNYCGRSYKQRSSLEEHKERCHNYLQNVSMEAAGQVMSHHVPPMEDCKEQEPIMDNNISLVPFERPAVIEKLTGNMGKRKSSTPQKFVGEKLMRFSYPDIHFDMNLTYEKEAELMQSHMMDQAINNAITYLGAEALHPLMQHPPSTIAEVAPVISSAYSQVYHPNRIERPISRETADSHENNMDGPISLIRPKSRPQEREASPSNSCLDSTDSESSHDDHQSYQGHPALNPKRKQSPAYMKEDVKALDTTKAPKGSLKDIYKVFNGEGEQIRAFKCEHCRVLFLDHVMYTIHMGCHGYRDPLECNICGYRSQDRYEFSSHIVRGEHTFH
T4 sequence (Q96SW2 whole entry): as the sequence (Q96SW2 whole entry) above
T4 sequence (Q16531 whole entry partner): as the sequence (Q16531 whole entry partner) above

IKZF1 = target: T5, IKZF1 (Homo sapiens, UniProt Q13422+Q96SW2); test: as above; type: cell-based; settings: Western blot, 24 hours of compound treatment, compounds tested at 50 nM and 500 nM (concentration for the table not stated)
T5 construct: effects of the compounds of the present disclosure on the expression of target proteins in cells; endogenous in cells; host or cells: human PBMCs (Milecell Biotechnologies)
T5 sequence (Q13422 whole entry): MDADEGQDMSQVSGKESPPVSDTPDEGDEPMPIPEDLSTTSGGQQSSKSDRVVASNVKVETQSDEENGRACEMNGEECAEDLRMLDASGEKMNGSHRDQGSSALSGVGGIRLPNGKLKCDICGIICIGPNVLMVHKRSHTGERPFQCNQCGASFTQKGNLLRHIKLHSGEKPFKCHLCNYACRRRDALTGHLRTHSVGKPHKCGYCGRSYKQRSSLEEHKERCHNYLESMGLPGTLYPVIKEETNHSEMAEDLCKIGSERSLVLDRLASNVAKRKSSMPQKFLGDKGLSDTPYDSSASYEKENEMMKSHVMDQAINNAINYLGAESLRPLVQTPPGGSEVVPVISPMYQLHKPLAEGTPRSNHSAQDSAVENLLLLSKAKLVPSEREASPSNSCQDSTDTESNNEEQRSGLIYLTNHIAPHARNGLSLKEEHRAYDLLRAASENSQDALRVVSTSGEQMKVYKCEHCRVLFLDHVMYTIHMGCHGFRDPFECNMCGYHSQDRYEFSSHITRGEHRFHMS
T5 sequence (Q96SW2 whole entry): as the sequence (Q96SW2 whole entry) above
T5 sequence (Q16531 whole entry partner): as the sequence (Q16531 whole entry partner) above

[1] = target: T6, human Cereblon WT GST-tagged protein (Homo sapiens, UniProt Q96SW2); test: CRBN-binding affinity, HTRF (CEREBLON BINDING kit); settings: for inhibition at 0.5 µM: read-out: Inhibition Rate at 0.5 µM (%); for inhibition at 2 µM: read-out: Inhibition Rate at 2 µM (%)
T6 construct: purchased CISBIO 64BDCRBNPEH
T6 sequence (Q96SW2 whole entry): as the sequence (Q96SW2 whole entry) above

GSPT1 = test: Western blot, degradation of substrate protein in hPBMCs; type: cell-based, Human; settings: Western blot, 24 hours of compound treatment, compounds tested at 50 nM and 500 nM (concentration for the table not stated)

| Structure (SMILES) | CK1α substrate protein remaining % (CK1α) | IKZF3 substrate protein remaining % (IKZF3) | Wee1 substrate protein remaining % (WEE1) | IKZF2 substrate protein remaining % (IKZF2) | IKZF 1 substrate protein remaining % (IKZF1) | inhibition at 0.5 µM [1] | inhibition at 2 µM [1] | GSPT1 substrate protein remaining % (GSPT1) |
| --- | --- | --- | --- | --- | --- | --- | --- | --- |
| O=C1CCC(N2Cc3c(CN4CCN(c5ncc(Cl)cc5Cl)CC4)cccc3C2=S)C(=O)N1 (stereo not shown) [GT-08703, 3-(4-((4-(3,5-dichloropyridin-2-yl)piperazin-1-yl)methyl)-1-thioxoisoindolin-2-yl)piperidine-2,6-dione] | B (80%< substrate protein remaining %≤ 100%) | B (80%< substrate protein remaining %≤ 100%) | A (0% ≤ substrate protein remaining % ≤ 80%) | B (80%< substrate protein remaining %≤ 100%) | B (80%< substrate protein remaining %≤ 100%) | 53 to 60% | 60 to 80% | B (80%< substrate protein remaining %≤ 100%) |
| O=C1CCC(N2Cc3c(CN4CCN(c5nccc(I)c5F)CC4)cccc3C2=S)C(=O)N1 (stereo not shown) [GT-08704, 3-(4-((4-(3-fluoro-4-iodopyridin-2-yl)piperazin-1-yl)methyl)-1-thioxoisoindolin-2-yl)piperidine-2,6-dione] | B (80%< substrate protein remaining %≤ 100%) | A (0% ≤ substrate protein remaining % ≤ 80%) | A (0% ≤ substrate protein remaining % ≤ 80%) | A (0% ≤ substrate protein remaining % ≤ 80%) | B (80%< substrate protein remaining %≤ 100%) | 40 to 53% | 80 to 100% | B (80%< substrate protein remaining %≤ 100%) |
| O=C1CCC(N2Cc3c(CN4CCN(c5ncc(C(F)(F)F)cc5Cl)CC4)cccc3C2=S)C(=O)N1 (stereo not shown) [GT-08705, 3-(4-((4-(3-chloro-5-(trifluoromethyl)pyridin-2-yl)piperazin-1-yl)methyl)-1-thioxoisoindolin-2-yl)piperidine-2,6-dione] | B (80%< substrate protein remaining %≤ 100%) | B (80%< substrate protein remaining %≤ 100%) | A (0% ≤ substrate protein remaining % ≤ 80%) | B (80%< substrate protein remaining %≤ 100%) | B (80%< substrate protein remaining %≤ 100%) | 30 to 40% | 60 to 80% | B (80%< substrate protein remaining %≤ 100%) |
| O=C1CCC(N2Cc3c(CN4CCN(c5cccnc5)CC4)cccc3C2=S)C(=O)N1 (stereo not shown) [GT-08706, 3-(4-((4-(pyridin-3-yl)piperazin-1-yl)methyl)-1-thioxoisoindolin-2-yl)piperidine-2,6-dione] | B (80%< substrate protein remaining %≤ 100%) | A (0% ≤ substrate protein remaining % ≤ 80%) | A (0% ≤ substrate protein remaining % ≤ 80%) | A (0% ≤ substrate protein remaining % ≤ 80%) | B (80%< substrate protein remaining %≤ 100%) | 53 to 60% | 80 to 100% | A (0% ≤ substrate protein remaining % ≤ 80%) |
| O=C1CCC(N2Cc3c(CN4CCN(c5ccc(Cl)nc5)CC4)cccc3C2=S)C(=O)N1 (stereo not shown) [GT-08723, 3-(4-((4-(6-chloropyridin-3-yl)piperazin-1-yl)methyl)-1-thioxoisoindolin-2-yl)piperidine-2,6-dione] | B (80%< substrate protein remaining %≤ 100%) | A (0% ≤ substrate protein remaining % ≤ 80%) | A (0% ≤ substrate protein remaining % ≤ 80%) | A (0% ≤ substrate protein remaining % ≤ 80%) | B (80%< substrate protein remaining %≤ 100%) | 60 to 80% | 80 to 100% | A (0% ≤ substrate protein remaining % ≤ 80%) |
| O=C1CCC(N2Cc3c(CN4CCN(c5cncc(Cl)c5Cl)CC4)cccc3C2=S)C(=O)N1 (stereo not shown) [GT-08724, 3-(4-((4-(4,5-dichloropyridin-3-yl)piperazin-1-yl)methyl)-1-thioxoisoindolin-2-yl)piperidine-2,6-dione] | B (80%< substrate protein remaining %≤ 100%) | B (80%< substrate protein remaining %≤ 100%) | A (0% ≤ substrate protein remaining % ≤ 80%) | B (80%< substrate protein remaining %≤ 100%) | B (80%< substrate protein remaining %≤ 100%) | 60 to 80% | 80 to 100% | B (80%< substrate protein remaining %≤ 100%) |
| O=C1CCC(N2Cc3c(CN4CCN(c5ccncc5)CC4)cccc3C2=S)C(=O)N1 (stereo not shown) [GT-08726, 3-(4-((4-(pyridin-4-yl)piperazin-1-yl)methyl)-1-thioxoisoindolin-2-yl)piperidine-2,6-dione] | B (80%< substrate protein remaining %≤ 100%) | A (0% ≤ substrate protein remaining % ≤ 80%) | A (0% ≤ substrate protein remaining % ≤ 80%) | A (0% ≤ substrate protein remaining % ≤ 80%) | B (80%< substrate protein remaining %≤ 100%) | 60 to 80% | 80 to 100% | A (0% ≤ substrate protein remaining % ≤ 80%) |
| O=C1CCC(N2Cc3c(CN4CCN(c5nccc(F)c5F)CC4)cccc3C2=S)C(=O)N1 (stereo not shown) [GT-08728, 3-(4-((4-(3,4-difluoropyridin-2-yl)piperazin-1-yl)methyl)-1-thioxoisoindolin-2-yl)piperidine-2,6-dione] | B (80%< substrate protein remaining %≤ 100%) | B (80%< substrate protein remaining %≤ 100%) | A (0% ≤ substrate protein remaining % ≤ 80%) | B (80%< substrate protein remaining %≤ 100%) | B (80%< substrate protein remaining %≤ 100%) | 53 to 60% | 80 to 100% | B (80%< substrate protein remaining %≤ 100%) |
